Experiments:
system Xc^− [1] = biological target: T1, system Xc^− (Homo sapiens, UniProt Q9UPY5); test: Cystine-induced glutamate release assay; assay type: cell-based; set-up: endogenous in cells; host or cells: H4 cells; conditions: H4 cells, sodium-free HEPES buffer, 50 μM L-Cystine, 2 hours, Amplex Red glutamate readout; read-out: pIC50 Cystine-induced glutamate release assay (converted)
T1 sequence (Q9UPY5 1-501): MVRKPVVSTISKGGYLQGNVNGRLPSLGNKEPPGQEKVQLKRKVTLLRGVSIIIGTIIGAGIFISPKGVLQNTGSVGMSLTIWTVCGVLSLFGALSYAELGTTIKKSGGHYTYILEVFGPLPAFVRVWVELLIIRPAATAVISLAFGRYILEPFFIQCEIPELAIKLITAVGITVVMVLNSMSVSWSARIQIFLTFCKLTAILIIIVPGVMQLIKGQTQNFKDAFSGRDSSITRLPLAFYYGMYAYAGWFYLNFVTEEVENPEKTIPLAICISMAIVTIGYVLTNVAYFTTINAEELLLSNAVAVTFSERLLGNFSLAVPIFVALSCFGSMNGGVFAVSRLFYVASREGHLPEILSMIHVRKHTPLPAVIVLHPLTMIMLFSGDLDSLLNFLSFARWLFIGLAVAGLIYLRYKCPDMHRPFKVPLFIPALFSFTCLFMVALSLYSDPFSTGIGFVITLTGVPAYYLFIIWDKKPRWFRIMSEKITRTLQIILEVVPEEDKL
T1 sequence (P08195 1-529 partner): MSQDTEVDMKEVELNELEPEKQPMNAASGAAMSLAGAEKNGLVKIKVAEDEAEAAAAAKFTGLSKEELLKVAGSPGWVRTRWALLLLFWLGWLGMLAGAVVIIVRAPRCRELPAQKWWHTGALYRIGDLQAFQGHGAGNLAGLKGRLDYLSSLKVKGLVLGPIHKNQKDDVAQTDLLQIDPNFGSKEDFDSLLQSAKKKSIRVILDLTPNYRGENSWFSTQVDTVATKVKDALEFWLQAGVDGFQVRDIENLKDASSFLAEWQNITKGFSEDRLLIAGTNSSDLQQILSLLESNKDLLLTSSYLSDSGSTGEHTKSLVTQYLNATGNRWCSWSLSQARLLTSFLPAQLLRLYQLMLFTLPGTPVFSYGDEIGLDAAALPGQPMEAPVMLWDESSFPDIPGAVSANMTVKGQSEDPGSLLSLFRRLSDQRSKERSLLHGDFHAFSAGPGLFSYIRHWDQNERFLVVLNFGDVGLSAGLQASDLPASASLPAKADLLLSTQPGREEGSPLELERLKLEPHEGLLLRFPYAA
In short: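 IC50 (reported as pIC50) normalized to DMSO 1% and Erastin 50 μM controls, from Amplex Red fluorescence of glutamate exported into supernatant. H4 cells were washed into sodium-free buffer to exclude EAAT transport, then given compound with 50 μM L-cystine for 2 h in the incubator.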

system Xc^− [2] = biological target: T1, system Xc^−; test: [^14C]L-Cystine uptake assay; assay type: cell-based; set-up: endogenous in cells; host or cells: H4 cells; conditions: H4 cells, sodium-free HEPES buffer, 0.5 μM L-[14C]Cystine and 4.5 μM L-Cystine, 1 hour at 37° C.; read-out: pIC50 [^14C] L-Cystine uptake assay (converted)
In short: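 Compound effect is given as pIC50, taken between controls of 1% DMSO and 50 μM Erastin. Human H4 cells were pretreated 15 min with compound in sodium-free buffer, then took up 0.5 μM [14C]cystine with 4.5 μM cold cystine for 1 hour at 37° C, read by scintillation proximity counting.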

IC50 (system Xc^− [1]) | IC50 (system Xc^− [2]) | SMILES
< 0.0158 µM | < 0.0158 µM | Cc1cc2c(c(F)n1)-c1cnccc1C(C)C(=O)N2CC(=O)Nc1ccc(C(F)F)cc1 (single isomer, unassigned) [#259, N-[4-(difluoromethyl)phenyl]-2-[3-fluoro-5,10-dimethyl-9-oxo-4,8,14-triazatricyclo[9.4.0.0^2,7]pentadeca-1(15),2,4,6,11,13-hexaen-8-yl]acetamide]
< 0.0158 µM | < 0.0158 µM | Cc1cc2c(c(F)n1)-c1cc(F)cnc1[C@H](C)C(=O)N2CC(=O)Nc1ccc(Cl)c(F)c1 (single isomer, unassigned) [#260]
< 0.0158 µM | < 0.0158 µM | Cc1cc2c(c(F)n1)-c1cc(F)cnc1C(C)C(=O)N2CC(=O)Nc1ccc(C(F)F)cc1 (single isomer, unassigned) [#261, N-[4-(difluoromethyl)phenyl]-2-[3,14-difluoro-5,10-dimethyl-9-oxo-4,8,12-triazatricyclo[9.4.0.0^2,7]pentadeca-1(11),2(7),3,5,12,14-hexaen-8-yl]acetamide]
0.0158 to 0.0398 µM | 0.0158 to 0.0398 µM | Cc1cc2c(c(F)n1)-c1cc(F)cnc1C(C)C(=O)N2CC(=O)Nc1ccc(C(F)(F)F)nc1 (single isomer, unassigned) [#262, 2-[3,14-difluoro-5,10-dimethyl-9-oxo-4,8,12-triazatricyclo[9.4.0.0^2,7]pentadeca-1(11),2(7),3,5,12,14-hexaen-8-yl]-N-[6-(trifluoromethyl)-3-pyridyl]acetamide]
< 0.0158 µM | < 0.0158 µM | Cc1cc2c(c(F)n1)-c1cc(F)cnc1C(C)C(=O)N2CC(=O)Nc1ccc(C(C)(F)F)cc1 (single isomer, unassigned) [#263, 2-[3,14-difluoro-5,10-dimethyl-9-oxo-4,8,12-triazatricyclo[9.4.0.0^2,7]pentadeca-1(15),2,4,6,11,13-hexaen-8-yl]-N-[4-(1,1-difluoroethyl)phenyl]acetamide]
0.0158 to 0.0398 µM | 0.0158 to 0.0398 µM | CC1C(=O)N(CC(=O)Nc2ccc(Cl)c(F)c2)c2cc(N(C)CCN(C)C)nc(F)c2-c2cccnc21 (single isomer, unassigned) [#266, N-(4-chloro-3-fluoro-phenyl)-2-[5-[2-(dimethylamino)ethyl-methyl-amino]-3-fluoro-10-methyl-9-oxo-4,8,12-triazatricyclo[9.4.0.0^2,7]pentadeca-1(15),2,4,6,11,13-hexaen-8-yl]acetamide]
0.0158 to 0.0398 µM | 0.0398 to 0.1 µM | CC1C(=O)N(CC(=O)Nc2ccc(Cl)c(F)c2)c2cc(N3CC4(CC4)C3)nc(F)c2-c2cccnc21 (single isomer, unassigned) [#267, 2-[5-(5-azaspiro[2.3]hexan-5-yl)-3-fluoro-10-methyl-9-oxo-4,8,12-triazatricyclo[9.4.0.0^2,7]pentadeca-1(15),2,4,6,11,13-hexaen-8-yl]-N-(4-chloro-3-fluoro-phenyl)acetamide]
< 0.0158 µM | < 0.0158 µM | CC1C(=O)N(CC(=O)Nc2ccc(Cl)c(F)c2)c2cc(N3CC(F)(F)C3)nc(F)c2-c2cccnc21 (single isomer, unassigned) [#268, N-(4-chloro-3-fluoro-phenyl)-2-[5-(3,3-difluoroazetidin-1-yl)-3-fluoro-10-methyl-9-oxo-4,8,12-triazatricyclo[9.4.0.0^2,7]pentadeca-1(15),2,4,6,11,13-hexaen-8-yl]acetamide]
0.0398 to 0.1 µM | 0.0398 to 0.1 µM | CC1C(=O)N(CC(=O)Nc2ccc(Cl)c(F)c2)c2cc(N3CC4(C3)CC4(F)F)nc(F)c2-c2cccnc21 (single isomer, unassigned) [#270, N-(4-chloro-3-fluoro-phenyl)-2-[5-(2,2-difluoro-5-azaspiro[2.3]hexan-5-yl)-3-fluoro-10-methyl-9-oxo-4,8,12-triazatricyclo[9.4.0.0^2,7]pentadeca-1(15),2,4,6,11,13-hexaen-8-yl]acetamide]
< 0.0158 µM | < 0.0158 µM | CC1C(=O)N(CC(=O)Nc2ccc(C(F)F)cc2)c2cc(N3CC(F)C3)nc(F)c2-c2cccnc21 (single isomer, unassigned) [#274, N-[4-(difluoromethyl)phenyl]-2-[3-fluoro-5-(3-fluoroazetidin-1-yl)-10-methyl-9-oxo-4,8,12-triazatricyclo[9.4.0.0^2,7]pentadeca-1(15),2,4,6,11,13-hexaen-8-yl]acetamide]
< 0.0158 µM | < 0.0158 µM | CC1C(=O)N(CC(=O)Nc2ccc(C(F)F)cc2)c2cc(N3CC(C)(O)C3)nc(F)c2-c2cccnc21 (single isomer, unassigned) [#275, N-[4-(difluoromethyl)phenyl]-2-[3-fluoro-5-(3-hydroxy-3-methyl-azetidin-1-yl)-10-methyl-9-oxo-4,8,12-triazatricyclo[9.4.0.0^2,7]pentadeca-1(15),2,4,6,11,13-hexaen-8-yl]acetamide]
< 0.0158 µM | < 0.0158 µM | C[C@@H]1C(=O)N(CC(=O)Nc2ccc(C(F)F)cc2)c2cc(N3CC[C@@H](F)C3)nc(F)c2-c2cccnc21 (single isomer, unassigned) [#276, N-[4-(difluoromethyl)phenyl]-2-[3-fluoro-5-[3-fluoropyrrolidin-1-yl]-10-methyl-9-oxo-4,8,12-triazatricyclo[9.4.0.0^2,7]pentadeca-1(15),2,4,6,11,13-hexaen-8-yl]acetamide]
0.0158 to 0.0398 µM | 0.0158 to 0.0398 µM | C[C@@H]1C(=O)N(CC(=O)Nc2ccc(C(F)F)cc2)c2cc(N3CC[C@@H](F)C3)nc(F)c2-c2cccnc21 (single isomer, unassigned) [#277, N-[4-(difluoromethyl)phenyl]-2-[3-fluoro-5-[3-fluoropyrrolidin-1-yl]-10-methyl-9-oxo-4,8,12-triazatricyclo[9.4.0.0^2,7]pentadeca-1(15),2,4,6,11,13-hexaen-8-yl]acetamide]
0.0398 to 0.1 µM | 0.0158 to 0.0398 µM | CC1C(=O)N(CC(=O)Nc2ccc(C(F)F)cc2)c2cc(N3CCC(F)(F)C3)nc(F)c2-c2cccnc21 (single isomer, unassigned) [#278, N-[4-(difluoromethyl)phenyl]-2-[5-(3,3-difluoropyrrolidin-1-yl)-3-fluoro-10-methyl-9-oxo-4,8,12-triazatricyclo[9.4.0.0^2,7]pentadeca-1(15),2,4,6,11,13-hexaen-8-yl]acetamide]
< 0.0158 µM | < 0.0158 µM | C[C@H]1C(=O)N(CC(=O)Nc2ccc(C(F)F)cc2)c2cc(N3CC[C@H](O)C3)nc(F)c2-c2cccnc21 (single isomer, unassigned) [#279, N-[4-(difluoromethyl)phenyl]-2-[3-fluoro-5-[3-hydroxypyrrolidin-1-yl]-10-methyl-9-oxo-4,8,12-triazatricyclo[9.4.0.0^2,7]pentadeca-1(15),2,4,6,11,13-hexaen-8-yl]acetamide]
< 0.0158 µM | < 0.0158 µM | CC1C(=O)N(CC(=O)Nc2ccc(C(F)F)cc2)c2cc(N3CC(F)(F)C3)nc(F)c2-c2cccnc21 (single isomer, unassigned) [#280, 2-[5-(3,3-difluoroazetidin-1-yl)-3-fluoro-10-methyl-9-oxo-4,8,12-triazatricyclo[9.4.0.0^2,7]pentadeca-1(11),2(7),3,5,12,14-hexaen-8-yl]-N-[4-(difluoromethyl)phenyl]acetamide]

SMILES | IC50 (system Xc^− [1]) | IC50 (system Xc^− [2])
CC1C(=O)N(CC(=O)Nc2ccc(Cl)c(F)c2)c2cc(N3[C@@H]4CCC[C@H]3C4)nc(F)c2-c2cccnc21 (single isomer, unassigned) [#269, 2-[5-(6-azabicyclo[3.1.1]heptan-6-yl)-3-fluoro-10-methyl-9-oxo-4,8,12-triazatricyclo[9.4.0.0^2,7]pentadeca-1(11),2(7),3,5,12,14-hexaen-8-yl]-N-(4-chloro-3-fluoro-phenyl)acetamide] | 0.0398 to 0.1 µM | 0.0398 to 0.1 µM
